Experimental data as given in patent publication US20240368123A1, “AROMATIC RING-CONTAINING BIOLOGICAL ANTAGONIST, AND PREPARATION METHOD THEREFOR AND USE THEREOF” (SHANGHAI HANSOH BIOMEDICAL CO., LTD., priority 2021, published 2024).

Legend:
ETA receptors = molecular target: T1, ETA receptors (Homo sapiens, UniProt P25101); assay: Effect on calcium current in cells stably expressing ETA receptors (FLIPR, antagonist mode); assay type: cell-based; details: HEK293-ETA cells, Fluo-8 AM, FLIPR Tetra; read-out: IC50 values of compounds on calcium current in cells stably expressing ETA receptors
T1 construct: host or cells: HEK293
T1 sequence (P25101 21-427): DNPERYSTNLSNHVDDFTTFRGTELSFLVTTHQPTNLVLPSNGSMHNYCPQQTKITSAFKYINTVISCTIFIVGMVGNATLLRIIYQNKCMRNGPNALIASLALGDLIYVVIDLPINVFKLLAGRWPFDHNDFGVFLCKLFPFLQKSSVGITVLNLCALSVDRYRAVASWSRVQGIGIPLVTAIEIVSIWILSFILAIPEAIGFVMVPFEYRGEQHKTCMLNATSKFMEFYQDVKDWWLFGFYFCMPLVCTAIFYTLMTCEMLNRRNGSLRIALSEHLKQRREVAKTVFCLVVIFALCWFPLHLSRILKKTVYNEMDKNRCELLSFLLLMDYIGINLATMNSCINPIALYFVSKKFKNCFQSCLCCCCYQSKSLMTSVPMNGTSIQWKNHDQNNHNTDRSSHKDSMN
From the text: Test Example 2. Determination of the Effect of the Compounds of the Present Invention on Calcium Current in Cells Stably Expressing ETA Receptors
• Antagonistic effect of test compounds on HEK293-ETA cell activity.
• DMEM, high glucose (Gibco: 12100); • Fetal bovine serum (Biosera: FB-1058/500); • P/S (Biosera: XC-A4122); • 5× Matrigel (Corning: 354230); • HBSS (Sigma: H1387); • HEPES (Invitrogen: 15630080); • Fluo-8 AM (AAT Bioquest: 21080); • Probenecid (Sigma: P8761); • Pluronic F-127 (Sigma: P2443-250G); • Endothelin 1 (MCE: HY—P0202); • Zibotentan (MCE: HY-10088); • 1000× Fluo-8 AM (2 mM): Fluo-8 AM was dissolved in DMSO, the mixture was shaken for 1-2 min, sub-packaged and stored at −20° C.; • Complete culture medium: DMEM+10% FBS+1×P/S; • Cell seeding medium: DMEM+10% FBS+1×PS; • Experimental buffer 1: 1×HBSS+20 mM HEPES+1 mM Probenecid+0.025% Pluronic F-127; • Experimental buffer 2: 1×HBSS+20 mM HEPES+0.075% Pluronic F-127; • 1× Matrigel: 5× Matrigel was diluted with DMEM; • Cell line: HDB HEK293-ETA.
• 1) HEK293-ETA cell line was cultured in complete culture medium at 37° C., 5% CO2 to 70%-90% confluence. • 2) the 384-well cell plate was coated with 1× Matrigel with 5 μL/well at room temperature for 10 to 30 min. • 3) the cells were digested and resuspended in cell seeding medium, inoculation was performed at 8,000 cells/well/20 μL in a 384-well cell culture plate, and the cells were cultured at 37° C., 5% CO2 for 24 h. • 4) the cell culture plate was taken out of the CO2 incubator and equilibrated at room temperature for 10 min. • 5) 1000× Fluo-8 AM was taken and diluted to 1× Fluo-8 AM with experimental buffer 1 that has been equilibrated to room temperature, with a concentration of 2 μM. • 6) the culture medium was removed from the cell culture plate, 20 μL of 1× Fluo-8 AM was added to each well, the mixture was centrifuged at 300 rpm for 60 seconds at room temperature, and incubated at room temperature in the dark for 1 h. • 7) positive control compound and test compound working solution (3×) were formulated: • (1) instrument Bravo was used to dilute the compound to 11 concentration points on the 384-well Echo compound plate (LABCYTE: LP-0200); • (2) instrument ECHO was used to transfer 90 nL of compound per well (compound storage concentration, such as the highest concentration point 10 mM) to the 384-well compound plate (PE: 6008590); • (3) Multidrop Combi was used to add 30 μL of experimental buffer 2 to the 384-well compound plate (PE: 6008590), the positive control compound and test compound were diluted to 30 μM (3×), and placed at room temperature until use. • 8) FLIPR Tetra was used to add 10 μL of diluted 3× compound into the experimental well of the corresponding 384-well cell plate, the compound and cells were incubated for 10 min at room temperature, then 10 μL of diluted 4× agonist was added, and the data was read and collected at the same time.
FLIPR Tetra was used to read and collect the fluorescence signal value (RFU). The maximum RFU value was used to calculate the percent activation data based on the readings of the Low control (DMSO control) and High control (100 nM positive compound) experimental groups {% activation rate=(RFUsample−RFUlow control)/(RFUhigh control−RFUlow control)×100}. The concentration of the test compound was 11 concentrations after diluting the reaction system 3 times, ranging from 10 μM to 0.17 nM.

[1] = Liver microsomal metabolism stability test, rat; assay type: in vitro ADME; details: for half-life at 1 μM: rat liver microsomes 0.5 mg/mL, compound 1 μM, NADPH/UDPGA; for Remaining rate: rat liver microsomes, 60 min
Description: The purpose of this experiment was to detect the stability of the example compounds in liver microsomes of rats, dogs and humans.
• Formulation of working solution of compounds: compound stock solution was added to phosphate buffer to a final concentration of 20 μM.
Dilution was performed with 100 mM phosphate buffer to a final concentration of 0.625 mg/mL.
NADPH (reduced nicotinamide adenine dinucleotide phosphate) and UDPGA (uridine diphosphate glucuronic acid) were weighed, 100 mM phosphate buffer was added, and the final concentration was 20 mM.
1 mg of Alamethicin was weighed, and 200 μL of DMSO was added to formulate a 5 mg/mL solution. Then dilution was performed with phosphate buffer to a final concentration of 50 μg/mL.
Stop solution: the stop solution contains 100 ng/mL labetalol hydrochloride and 400 ng/mL tolbutamide and cold acetonitrile as internal standard.
400 μL of formulated liver microsomes, 25 μL of compound working solution and 25 μL of Alamethicin were added in sequence to the 96-well plate, and pre-incubated at 37° C. for 10 min. Then 50 μL of formulated NADPH/UDPGA was added to start the reaction and the mixture was incubated at 37° C. The total volume of the reaction system was 500 μL. The final contents of each component are as follows:
• Instrument: Shimadzu LC-30 AD; • Chromatographic column: XBridge® C18 (50*4.6 mm, 5 μm particle size); • Mobile phase: A: 0.1% formic acid solution, B: methanol Wash gradient: 0.2-1.6 min 5% A to 95% A, 3.0-3.1 min 95% A to 5% A Run time: 4.0 min.
• Instrument: API5500 liquid chromatography mass spectrometer, AB Sciex; • Ion source: electrospray ionization source (ESI); • Drying gas: N2, temperature 500° C.; • Electrospray voltage: 5000 V; • Detection mode: positive ion detection; • Scanning mode: reaction monitoring (MRM) mode.

Row | SMILES | IC50 (ETA receptors) | half-life at 1 μM [1] | Remaining rate [1]
1 | CCCCC1=NC2(CCCCC2)C(=O)N1Cc1ccc(-c2ccccc2S(=O)(=O)Nc2noc(C)c2Cl)c(COCC)c1 [Example 68, 4′-((2-2-4-4-oxo-1,3-diazaspiro[4.5]dec-1-en-3-yl)methyl)-N-(4-chloro-5-methylisoxazol-3-yl)-2′-(ethoxymethyl)-[1,1′-biphenyl]-2-sulfonamide] | 18.7 nM |  | 
2 | CCCCC1=NC2(CC3CC3C2)C(=O)N1Cc1ccc(-c2ccccc2S(=O)(=O)Nc2noc(C)c2Cl)c(COCC)c1 (stereo not drawn) [Example 65, 4′-((2′-butyl-5′-oxaspiro[bicyclo[3.1.0]hexane-3,4′-imidazole]-1′(5′H)-yl)methyl)-N-(4-chloro-5-methylisoxazol-3-yl)-2′-(ethoxymethyl)-[1,1′-biphenyl]-2-sulfonamide] | 7.2 nM |  | 
3 | CCCCC1=NC2(CCCC2)C(=O)N1Cc1ccc(-c2ccccc2S(=O)(=O)Nc2noc(C)c2Br)c(COCC)c1 [Example 46, 2-[4-[(2-butyl-4-oxo-1,3-diazaspiro[4.4]non-1-en-3-yl)methyl]-2-(ethoxymethyl)phenyl]-N-(4-bromo-5-methyl-isoxazol-3-yl)benzsulfamide] |  | 24.3 min | 17.3%
4 | CCCCC1=NC2(CCCC2)C(=O)N1Cc1ccc(-c2ccccc2S(=O)(=O)Nc2noc(C)c2Cl)c(COCC(F)(F)F)c1 [Example 86] | 13.9 nM |  | 
5 | [2H]C([2H])(OCC)c1cc(CN2C(=O)C3(CCCC3)N=C2CCCC)ccc1-c1ccccc1S(=O)(=O)Nc1noc(C)c1Cl [Example 49, 4′-((2-butyl-4-oxo-1,3-diazospiro[4.4]non-1-en-3-yl)methyl)-N-(4-chloro-5-methylisoxazol-3-yl)-2′-(ethoxydeuteriummethyl)-[1,1′-biphenyl]-2-sulfonamide] | 12.9 nM | 24 min | 17.1%
6 | CCCCC1=NC2(CC3CC3C2)C(=O)N1Cc1ccc(-c2ccccc2S(=O)(=O)Nc2noc(C)c2C)c(COCC)c1 (stereo not drawn) [Example 87, 4′-((2′-butyl-5′-oxaspiro[bicyclo[3.1.0]hexane-3,4′-imidazole]-1′(5′H)-yl)methyl)-N-(4,5-dimethylisoxazol-3-yl)-2′-(ethoxymethyl)-[1,1′-biphenyl]-2-sulfonamide] | 8.2 nM |  | 
